Nine compounds from patent publication US20120014918A1, “ADDITION SALTS OF AMINES CONTAINING HYDROXYL AND/OR CARBOXYLIC GROUPS WITH AMINO NICOTINIC ACID DERIVATIVES AS DHODH INHIBITORS” (priority 2009, published 2012) can be followed below.

What all share (type): physicochemical
The nature of series [1]: Water-solubility test. The settings on record: 25° C. (room temperature), expressed as acid.
The nature of series [2]: Dynamic Vapour Sorption (DVS) profiles. The settings on record: 25° C.; for Hygroscopicity according to the DVS pattern: sorption 0 to 95% RH and desorption; for Hysteresis in the DVS pattern: sorption/desorption isotherms; for Mass increase at 80% relative humidity: 80% RH; for Mass increase at 90% relative humidity: 90% RH. The protocol: Dynamic Vapour Sorption (DVS) profiles were obtained using an Igasorp Hiden Isochema instrument (serial number IGA-SA-066). After an initial stabilization period, at least two isotherms (at 25° C.) were obtained for each sample: a moisture sorption from 0 to 95% relative humidity and moisture desorption from 95% relative humidity to dryness. Both isotherms were performed in 10% humidity steps, with a minimum time of 10 minutes and a maximum time of 30 minutes for each step.

A short description of series [3]: Differential scanning calorimetry (DSC) thermograms. The following applies: heated 30 to 350° C. at 10° C./min. The protocol: The differential scanning calorimetry (DSC) thermograms analyses were obtained using a DSC-821 Mettler-Toledo instrument, serial number 5117423874. Samples were weighed into an aluminium pan, an aluminium lid placed on top of the sample and compressed with a brass rod. Samples were equilibrated at 30° C. and heated at 10° C./min to 350° C. The instrument was calibrated using indium and zinc standards.
(In DSC, transitions show as peaks or steps in heat flow.)

Where a name gives a salt, the structure may show the parent alone.

Regarding `COc1cccc(-c2cc(F)c(Nc3ncccc3C(=O)O)c(F)c2)c1` [C1, 2-[(3,5-difluoro-3′-methoxy-1,1′-biphenyl-4-yl)amino]nicotinic acid, reference compound], in series [1], the “Water Solubility @ 25° C. (mg/mL as acid)” value amounted to 0.004 mg/mL.
On the same count and under the same terms, the same measure for `CCOc1cccc(-c2ccc(Nc3ncccc3C(=O)O)c(OC(F)(F)F)c2)c1` [C2, 2-{[3′-ethoxy-3-(trifluoromethoxy)-1,1′-biphenyl-4-yl]amino}nicotinic acid, reference compound]: 0.008 mg/mL; for `Cc1c(-c2ccccc2)cc(F)c(Nc2ncccc2C(=O)O)c1F` [C3, 2-[(3,5-difluoro-2-methyl-1,1′-biphenyl-4-yl)amino]nicotinic acid, reference compound]: 0.002 mg/mL.
For the compound `COc1cccc(-c2cc(F)c(Nc3ncccc3C(=O)O)c(F)c2)c1` [Ex. 1, 2-[(3,5-difluoro-3′-methoxy-1,1′-biphenyl-4-yl)amino]nicotinic acid, meglumine salt], in series [2], the “Hygroscopicity according to the DVS pattern” value (from here on “Hygroscopicity according”) is “not hygroscopic” and the “Hysteresis in the DVS pattern” value is “no hysteresis”. Moreover, in series [1], the “Water Solubility @ 25° C. (mg/mL as acid)” value is 2.810 mg/mL. Besides, the “Stability (no conversion into other polymorphs, no decomposition) from DSC thermogram” value in series [3] is on record as “high stability”.
With `COc1cccc(-c2cc(F)c(Nc3ncccc3C(=O)O)c(F)c2)c1` [Ex. 2, 2-[(3,5-difluoro-3′-methoxy-1,1′-biphenyl-4-yl)amino]nicotinic acid, tromethamine salt], in series [2], the “Hygroscopicity according” value was “not hygroscopic” and the “Hysteresis in the DVS pattern” value is reported as “no hysteresis”. The “Water Solubility @ 25° C. (mg/mL as acid)” value in series [1] was found to be 0.870 mg/mL. Also, the “Stability (no conversion into other polymorphs, no decomposition) from DSC thermogram” value in series [3] is on record as “high stability”.
For the compound `CCOc1cccc(-c2ccc(Nc3ncccc3C(=O)O)c(OC(F)(F)F)c2)c1` [Ex. 3, 2-(3′-ethoxy-3-(trifluoromethoxy)biphenyl-4-ylamino)nicotinic acid, meglumine salt], in series [2], the “Mass increase at 80% relative humidity” value is on record as 2.7%, the “Mass increase at 90% relative humidity” value stood at 6.2%, the “Hygroscopicity according” value was “slightly hygroscopic” and the “Hysteresis in the DVS pattern” value is “no hysteresis”. In series [1], the “Water Solubility @ 25° C. (mg/mL as acid)” value came out at 0.478 mg/mL. Moreover, the “Stability (no conversion into other polymorphs, no decomposition) from DSC thermogram” value in series [3] is “high stability”.
Take `Cc1c(-c2ccccc2)cc(F)c(Nc2ncccc2C(=O)O)c1F` [Ex. 4, 2-(3,5-difluoro-2-methylbiphenyl-4-ylamino)nicotinic acid, meglumine salt]: the “Hygroscopicity according” value in series [2] was “not hygroscopic”. The “Water Solubility @ 25° C. (mg/mL as acid)” value in series [1] is reported as 0.210 mg/mL.
For `Cc1c(-c2ccccc2)cc(F)c(Nc2ncccc2C(=O)O)c1F` [Ex. 5, 2-(3,5-difluoro-2-methylbiphenyl-4-ylamino)nicotinic acid, tromethamine salt], in series [2], the “Mass increase at 80% relative humidity” value turned out to be 5.7%, the “Mass increase at 90% relative humidity” value is 14.9%, the “Hygroscopicity according” value is reported as “a bit hygroscopic” and the “Hysteresis in the DVS pattern” value is “without hysteresis”. Further, the “Water Solubility @ 25° C. (mg/mL as acid)” value in series [1] is reported as 0.490 mg/mL.
`COc1cccc(-c2cc(F)c(Nc3ncccc3C(=O)O)c(F)c2)c1` [Ex. 6, 2-[(3,5-difluoro-3′-methoxy-1,1′-biphenyl-4-yl)amino]nicotinic acid, L-arginine salt]: the “Stability (no conversion into other polymorphs, no decomposition) from DSC thermogram” value in series [3] is “high stability”.
